Measurements taken from EP1980559A1, “Cardiovascular agents” (CTG Pharma S.r.l., priority 2007, dated 2008).

Tests used:
[1] = test system: isolated rabbit thoracic aorta preparations; experiment: Study on vascular tone: vasorelaxation in isolated rabbit thoracic aorta preparations; conditions: aorta rings contracted submaximally with noradrenaline (1 µM); concentration-response curve
Description: The ability of ARB derivatives to induce vasorelaxation in comparison to native ARB, was tested in vitro in isolated rabbit thoracic aorta preparations (Wanstall J. C. et al., Br. J. Pharmacol., 134:463-472, 2001). Male New Zealand rabbits were anaesthetized with thiopental-Na (50 mg/kg, iv), sacrificed by exsanguinations and then the thorax was opened and the aorta dissected.
Single ring preparations (4 mm in length) of thoracic aorta were set up in physiological salt solution at 37 °C in small organ chambers (5 ml). Each ring was mounted under 2g passive tension in 5 ml organ bath. Preparations were allowed to equilibrate for 1 h, then contracted submaximally with noradrenaline (NA, 1 µM) and, when the contraction was stable, acetylcholine (ACh, 10 µM) was added.
A relaxant response to ACh indicated the presence of a functional endothelium.

NAD(P)H oxidases [2] = experiment: NAD(P)H oxidases inhibition: superoxide (O2^-) release by ferricytochrome c reduction in PAECs; type: cell-based, porcine; conditions: PAECs stimulated with LPS, TNFα and IL1α; 100 nM; 16 hours incubation
Description: (§1) The method described by Muzaffar S, Shukla N, Angelini GD, Jeremy JY; "Prednisolone augments superoxide formation in porcine pulmonary artery endothelial cells through differential effects on the expression of nitric oxide synthase and NADPH oxidase" in Br. J. Pharmacol. 2005 Ju1;145(5):688-97 was used.
(§2) Briefly lungs were obtained from male pigs of body weight ranging from 20 - 35 kg. Pulmonary arteries (PA) of between 3-4 mm diameter were dissected from the lungs within 30 minutes and placed in Dulbecco's Minimum Essential Medium (DMEM). The arteries were then cut into 2 mm segments for preparation of cell cultures. PAECs were grown in Endothelial Cell Growth Medium at 37°C in a 95% air-5% CO2 incubator. The measurement of superoxide (O2^-) release by cells was performed by detection of ferricytochrome c reduction.
(§3) The reduction of cytochrome c that was inhibitable with SOD reflected actual O2^- release. PAVSMCs and PAECS were seeded and incubated with the TXA2 analogue, U46619, isoprostane F2α,LPS (endotoxin) human recombinant IL-1α and human recombinant TNF-α, alone or with drugs for 16 hours. RESULTS
(§4) LPS, IL-1α, TNF-α and U46619 all promoted the formation of O2^- in both porcine pulmonary artery VSMCs (PAVSMCs) and endothelial cells (PAECS) compared to untreated controls following a 16 hour incubation. […]

[3] = test system: spontaneously hypertensive rats (SHRs); experiment: Antihypertensive activity in vivo: systolic blood pressure by telemetry in conscious SHRs; conditions: daily oral dose for 3 days, losartan 10 mg/kg po or equimolar dose; for Systolic blood pressure (SBP) 1 hr: 1 hr after dosing; for Systolic blood pressure (SBP) 12 hr: 12 hr after dosing; for Systolic blood pressure (SBP) 24 hr: 24 hr after dosing
Description: The ability of compound of example 1 to decrease blood pressure was evaluated in conscious spontaneously hypertensive rats (SHRs).
Three groups of SHRs (250-300g) received daily oral dose of losartan (10 mg/kg po) or compound of example 1 (equimolar dose) or vehicle (SHR control group) for 3 days. Systolic blood pressure (SBP) and heart rate were monitored by telemetry at different time points after dosing. The SBP was measured at baseline and after 1 hour, 12 hours and 24 hours.

NAD(P)H oxidases [4] = experiment: NAD(P)H oxidases inhibition: superoxide (O2^-) release by ferricytochrome c reduction in PAVSMCs; type: cell-based, porcine; conditions: PAVSMCs stimulated with LPS, TNFα and IL1α; 100 nM; 16 hours incubation
Description: as §1, §2, §3, §4

Row | Compound | relaxation [1] | formation of O2^- (NAD(P)H oxidases [2]) | Systolic blood pressure (SBP) 1 hr [3] [mm Hg] | Systolic blood pressure (SBP) 12 hr [3] [mm Hg] | Systolic blood pressure (SBP) 24 hr [3] [mm Hg] | Systolic blood pressure (SBP) Baseline [3] [mm Hg] | formation of O2^- (NAD(P)H oxidases [4])
1 | CCCCc1nc(Cl)c(CO)n1Cc1ccc(-c2ccccc2-c2nn[nH]n2)cc1 [Losartan, losartan] | did not produce relaxation at any of the concentration tested | no significant effect | 135 | 134 | 135 | 143 | no significant effect
2 | CCCCc1nc(Cl)c(COC(=O)c2ccc(-c3cssc3=S)cc2)n1Cc1ccc(-c2ccccc2-c2nn[nH]n2)cc1 [Cpd EX.1, 4-(3-thioxo-3H-1,2-dithiol-4-yl)benzoic acid 2-butyl-4-chloro-1-[p-(o-1H-tetrazol-5-ylphenyl)-benzyl]imidazole-5-methyl ester] | – | – | 120 | 121 | 122 | 145 | –
